Assay results as given in patent US8906925B2, “Pyrido[4,3-B]indoles containing rigid moieties” (Medivation Technologies, Inc., priority 2008, dated 2014).
Several values for one entry are separate records, joined by “and”; a condition that tells them apart may be missing. Identical values can stand only once. Like-named read-outs stand apart in the source and are kept apart here.

Key:
[1] = molecular target: T1, human recombinant serotonin (5-Hydroxytryptamine) 5-HT2A receptor (Homo sapiens, UniProt P28223); assay: Serotonin 5-HT2A radioligand binding ([3H]Ketanserin); conditions: for inhibition at 1 µM: read-out: Inhibition of ligand binding, Serotonin 5-HT2A (percent inhibition of specific binding), compound at 1 μM; for inhibition at 0.1 µM: read-out: Inhibition of ligand binding, Serotonin 5-HT2A (percent inhibition of specific binding), compound at 0.1 μM
T1 construct: expressed in transfected cells; host or cells: Chinese hamster ovary (CHO-K1) cells
Method: Compounds of the invention were incubated with 0.5 nM [^3H]Ketanserin for 60 min. at 25° C. Non-specific binding was estimated in the presence of 1 μM Mianserin. Receptor proteins were filtered and washed, the filters were then counted to determine [^3H]Ketanserin specifically bound.

histamine receptor H1 = histamine receptor H1 (Homo sapiens, UniProt P35367); assay: Histamine H1 radioligand binding ([3H]Pyrilamine)
Outline: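 Values are percent inhibition of specific [3H]pyrilamine (1.2 nM) binding with compounds at ≤1 μM (1% DMSO vehicle); 180 min incubation at 25 °C, pH 7.4 Tris buffer, on CHO-expressed human H1 receptor; 1 μM pyrilamine defined nonspecific binding, bound ligand counted after filtration.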

[2] = molecular target: T2, human recombinant adrenergic α2B receptor (Homo sapiens, UniProt P18089); assay: Adrenergic α2B radioligand binding ([3H]Rauwolscine); conditions: for inhibition at 1 µM: read-out: Inhibition of ligand binding, Adrenergic α2B
T2 construct: expressed in transfected cells; host or cells: Chinese hamster ovary (CHO-K1) cells
T2 sequence (P18089 1-450): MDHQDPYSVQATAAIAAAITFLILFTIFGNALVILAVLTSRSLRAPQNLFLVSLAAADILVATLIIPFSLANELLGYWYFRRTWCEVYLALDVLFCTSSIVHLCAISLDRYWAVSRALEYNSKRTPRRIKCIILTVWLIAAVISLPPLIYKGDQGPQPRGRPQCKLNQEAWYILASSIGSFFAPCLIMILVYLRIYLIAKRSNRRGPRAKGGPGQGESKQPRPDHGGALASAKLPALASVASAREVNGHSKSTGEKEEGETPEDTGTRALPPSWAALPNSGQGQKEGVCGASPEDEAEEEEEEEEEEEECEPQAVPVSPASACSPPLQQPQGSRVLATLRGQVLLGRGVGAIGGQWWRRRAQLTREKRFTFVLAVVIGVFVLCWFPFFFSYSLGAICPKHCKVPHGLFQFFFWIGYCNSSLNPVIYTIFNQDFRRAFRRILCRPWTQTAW
Method: To evaluate in radioligand binding assays the activity of compounds of the invention, human recombinant adrenergic α2B receptor expressed in Chinese hamster ovary (CHO-K1) cells (Uhlen S et al. Eur J Pharmacol. 343(1):93, 1998) in a modified Tris-HCl buffer (50 mM Tris-HCl, pH 7.4, 12.5 mM MgCl2, 1 mM EDTA, 0.2% BSA) was used. Compounds of the invention were incubated with 2.5 nM [^3H]Rauwolscine for 60 min. at 25° C. Non-specific binding was estimated in the presence of 10 μM Prozosin. Receptor proteins were filtered and washed, the filters were then counted to determine [^3H]Rauwolscine specifically bound. Compounds were screened at 1 μM or lower, using 1% DMSO as vehicle. Biochemical assay results are presented as the percent inhibition of specific binding in Table 9.

[3] = molecular target: T3, human recombinant adrenergic α2A receptor (Homo sapiens, UniProt P08913); assay: Adrenergic α2A radioligand binding ([3H]MK-912); conditions: for inhibition at 1 µM: read-out: Inhibition of ligand binding, Adrenergic α2A
T3 construct: expressed in transfected cells; host or cells: insect Sf9 cells
T3 sequence (P08913 1-465): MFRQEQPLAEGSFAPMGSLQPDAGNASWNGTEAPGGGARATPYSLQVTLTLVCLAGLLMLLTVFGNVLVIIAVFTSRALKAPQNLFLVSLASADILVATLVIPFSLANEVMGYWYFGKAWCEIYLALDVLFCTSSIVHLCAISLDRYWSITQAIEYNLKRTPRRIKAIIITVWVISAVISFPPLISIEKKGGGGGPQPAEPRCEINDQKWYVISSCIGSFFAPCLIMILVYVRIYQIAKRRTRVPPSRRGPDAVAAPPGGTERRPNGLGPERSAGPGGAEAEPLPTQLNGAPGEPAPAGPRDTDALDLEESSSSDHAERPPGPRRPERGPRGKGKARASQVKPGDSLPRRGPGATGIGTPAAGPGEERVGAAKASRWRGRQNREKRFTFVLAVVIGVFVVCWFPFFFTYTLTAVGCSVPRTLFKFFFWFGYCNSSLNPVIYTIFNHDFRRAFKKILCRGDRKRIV
Method: To evaluate in radioligand binding assays the activity of compounds of the invention, human recombinant adrenergic α2A receptor expressed in insect Sf9 cells (Uhlen S et al. J Pharmacol Exp Ther. 271:1558, 1994) in a modified Tris-HCl buffer (50 mM Tris-HCl, pH 7.4, 12.5 mM MgCl2, 2 mM EDTA) was used. Compounds of invention were incubated with 1 nM [^3H]MK-912 for 60 min. at 25° C. MK912 is (2S-trans)-1,3,4,5′,6,6′,7,12b-octahydro-1′,3′-dimethyl-spiro[2H-benzofuro[2,3-a]quinolizine-2,4′(1′H)-pyrimidin]-2′(3′H)-one hydrochloride Non-specific binding was estimated in the presence of 10 μM WB-4101 (2-(2,6-Dimethoxyphenoxyethyl)aminomethyl-1,4-benzodioxane hydrochloride). Receptor proteins were filtered and washed, the filters were then counted to determine [^3H]MK-912 specifically bound. Compounds were screened at 1 μM or lower, using 1% DMSO as vehicle. Biochemical assay results are presented as the percent inhibition of specific binding in Table 9.

[4] = molecular target: T4, human recombinant histamine H2 receptor (Homo sapiens, UniProt P25021); assay: Histamine H2 radioligand binding ([125I]Aminopotentidine)
T4 construct: expressed in transfected cells; host or cells: Chinese hamster ovary (CHO) K1 cells
Outline: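 CHO-K1 cells expressing human recombinant H2 receptor, 50 mM phosphate buffer pH 7.4; compounds incubated with 0.1 nM [125I]aminopotentidine for 120 min at 25 °C. Nonspecific binding defined with 3 μM tiotidine; specifically bound radioligand counted after filtration and washing.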

[5] = read-out: Histamine Binding (1 μM) H1, percent inhibition of specific binding, 1 μM
[6] = percent inhibition of specific binding, compound at 1 μM, 1 µM
[7] = percent inhibition of specific binding, compound at 1 μM
[8] = read-out: Histamine Binding (1 μM) H2, percent inhibition of specific binding, 1 μM

T1 sequence (P28223 whole entry): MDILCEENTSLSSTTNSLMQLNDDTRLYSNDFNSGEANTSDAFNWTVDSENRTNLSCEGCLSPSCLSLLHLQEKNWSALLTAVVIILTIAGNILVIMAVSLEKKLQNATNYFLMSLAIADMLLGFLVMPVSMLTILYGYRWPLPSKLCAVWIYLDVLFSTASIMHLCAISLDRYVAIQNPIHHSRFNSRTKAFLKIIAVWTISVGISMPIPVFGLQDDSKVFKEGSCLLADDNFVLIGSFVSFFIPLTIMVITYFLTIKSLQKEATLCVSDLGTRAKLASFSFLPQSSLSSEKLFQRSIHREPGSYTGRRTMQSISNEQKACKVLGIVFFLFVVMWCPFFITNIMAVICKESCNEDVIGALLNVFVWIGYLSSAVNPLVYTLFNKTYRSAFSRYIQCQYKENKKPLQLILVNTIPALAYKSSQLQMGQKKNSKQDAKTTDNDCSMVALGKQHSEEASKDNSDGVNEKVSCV
Chain of histamine receptor H1 (P35367 whole entry): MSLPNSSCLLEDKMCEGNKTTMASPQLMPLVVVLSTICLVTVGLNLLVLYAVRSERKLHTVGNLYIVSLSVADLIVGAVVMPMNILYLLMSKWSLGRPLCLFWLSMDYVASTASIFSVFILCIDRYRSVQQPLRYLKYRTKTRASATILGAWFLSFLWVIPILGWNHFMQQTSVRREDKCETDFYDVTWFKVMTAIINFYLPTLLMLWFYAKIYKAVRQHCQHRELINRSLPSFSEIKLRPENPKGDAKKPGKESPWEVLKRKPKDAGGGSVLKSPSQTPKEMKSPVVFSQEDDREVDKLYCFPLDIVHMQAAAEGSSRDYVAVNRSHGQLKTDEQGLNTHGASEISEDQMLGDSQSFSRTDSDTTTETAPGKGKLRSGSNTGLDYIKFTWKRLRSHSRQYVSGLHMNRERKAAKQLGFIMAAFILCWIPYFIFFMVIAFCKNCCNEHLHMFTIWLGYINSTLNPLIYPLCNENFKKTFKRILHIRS
T4 sequence (P25021 whole entry): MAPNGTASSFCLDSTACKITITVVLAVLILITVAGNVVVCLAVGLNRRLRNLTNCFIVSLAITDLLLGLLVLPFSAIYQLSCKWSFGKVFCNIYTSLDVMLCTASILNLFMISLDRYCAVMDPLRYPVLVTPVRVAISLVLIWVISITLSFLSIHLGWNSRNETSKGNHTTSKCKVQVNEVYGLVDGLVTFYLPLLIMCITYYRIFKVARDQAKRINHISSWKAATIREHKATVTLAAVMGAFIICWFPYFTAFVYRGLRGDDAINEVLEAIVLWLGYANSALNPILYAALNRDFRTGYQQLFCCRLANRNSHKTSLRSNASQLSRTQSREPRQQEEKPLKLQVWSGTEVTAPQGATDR

Row | SMILES | inhibition at 1 µM [1] [%] | inhibition at 1 µM (histamine receptor H1; [5]) [%] | inhibition at 1 µM [2, 7] [%] | inhibition at 1 µM [3, 7] [%] | inhibition at 1 µM [4, 8] [%] | other results
1 | Cc1ccc(C(O)Cn2c3c(c4cc(C)ccc42)CN(C)CC3)cc1 (racemic) [Compound 43, racemic-2-(1,2,3,4-tetrahydro-2,8-dimethylpyrido[4,3-b]indol-5-yl)-1-p-tolylethanol] | 100 | 81 | 108 | 98 | – | Inhibition of ligand binding, Adrenergic α2B [2, 6]: 102%
2 | CCN1CCc2c(c3ccccc3n2CC(O)c2ccc(C)cc2)C1 (racemic) [Compound 44, racemic-2-(2-ethyl-1,2,3,4-tetrahydropyrido[4,3-b]indol-5-yl)-1-p-tolylethanol] | 80 | 54 | 94 | 65 | 26 | –
3 | CCN1CCc2c(c3cc(C)ccc3n2CC(O)c2ccc(C)cc2)C1 (racemic) [Compound 51, racemic-2-(2-ethyl-1,2,3,4-tetrahydro-8-methylpyrido[4,3-b]indol-5-yl)-1-p-tolylethanol] | 102 | 100 | 118 | 91 | 59 | –
4 | Cc1ccc(C(O)Cn2c3c(c4ccccc42)CN(C)CC3)cc1 (racemic) [Compound 53, racemic-2-(1,2,3,4-tetrahydro-2-methylpyrido[4,3-b]indol-5-yl)-1-p-tolylethanol] | 100 | 47 | 114 | 93 | 58 | –
5 | CC(=Cn1c2c(c3cc(Cl)ccc31)CN(C)CC2)c1ccc(Cl)cc1Cl (stereo in doubt) [Compound 111, (Z)-8-chloro-5-(2-(2,4-dichlorophenyl)prop-1-enyl)-2,3,4,5-tetrahydro-2-methyl-1H-pyrido[4,3-b]indole] | 99 | – | 90 | – | 91 | inhibition at 0.1 µM [1]: 86%; Histamine Binding (1 μM) H1, percent inhibition of specific binding (histamine receptor H1): 73% and 74%; Inhibition of ligand binding, Adrenergic α2A [3, 6]: 101%
6 | Cc1ccc2[nH]c3c(c2c1)CN(C)CC3 [Compound 3, 2,8-Dimethyl-2,3,4,5-tetrahydro-1H-pyrido[4,3-b]indole] | – | – | – | – | – | inhibition at 1 µM (histamine receptor H1; read-out: Histamine Binding (1 μM) H1, percent inhibition of specific binding): 30%; inhibition at 1 µM ([4]; read-out: Histamine Binding (1 μM) H2, percent inhibition of specific binding): 6%; inhibition at 1 µM [2]: 91%; inhibition at 1 µM [3]: 58%
7 | CN1CCc2c(c3cc(Cl)ccc3n2CC(C)(O)c2ccc(F)cc2)C1 (stereo not shown) [Compound 45, 1-(8-chloro-1,2,3,4-tetrahydro-2-methylpyrido[4,3-b]indol-5-yl)-2-(4-fluorophenyl)propan-2-ol] | 99 | 65 | 109 | 89 | 94 | inhibition at 0.1 µM [1]: 86%; Histamine Binding (1 μM) H1, percent inhibition of specific binding (histamine receptor H1): 73%
8 | Cc1ccc(C(C)(O)Cn2c3c(c4cc(Cl)ccc42)CN(C)CC3)cn1 (stereo not shown) [Compound 47, 1-(8-chloro-1,2,3,4-tetrahydro-2-methylpyrido[4,3-b]indol-5-yl)-2-(6-methylpyridin-3-yl)propan-2-ol] | 84 | 33 | 106 | 81 | 48 | –
9 | Cc1ccc2c(c1)c1c(n2CC(O)c2ccc(C)nc2)CCN(C)C1 (stereo not shown) [Compound 48, 2-(2,8-dimethyl-3,4-dihydro-1H-pyrido[4,3-b]indol-5(2H)-yl)-1-(6-methylpyridin-3-yl)ethanol] | 73 | 93 | 100 | 83 | 47 | –
10 | Cc1ccc2c(c1)c1c(n2CC(C)(O)c2ccc(C)nc2)CCN(C)C1 (stereo not shown) [Compound 52, 1-(1,2,3,4-tetrahydro-2,8-dimethylpyrido[4,3-b]indol-5-yl)-2-(6-methylpyridin-3-yl)propan-2-ol] | 83 | 46 | 104 | 84 | 51 | –
11 | Cc1ccc2c(c1)c1c(n2CC(O)c2cccnc2)CCN(C)C1 (stereo not shown) [Compound 54, 2-(1,2,3,4-tetrahydro-2,8-dimethylpyrido[4,3-b]indol-5-yl)-1-(pyridin-3-yl)ethanol] | 42 | 68 | 103 | 39 | 5 | –
12 | Cc1ccc2c(c1)c1c(n2CC(C)(O)c2ccc(F)cc2)CCN(C)C1 (stereo not shown) [Compound 55, 2-(4-fluorophenyl)-1-(1,2,3,4-tetrahydro-2,8-dimethylpyrido[4,3-b]indol-5-yl)propan-2-ol] | 100 | 91 | 108 | 85 | 88 | –
13 | C/C(=C\n1c2c(c3cc(C)ccc31)CN(C)CC2)c1ccncc1 [Compound 88, (E)-2,3,4,5-tetrahydro-2,8-dimethyl-5-(2-(pyridin-4-yl)prop-1-enyl)-1H-pyrido[4,3-b]indole] | 98 | – | 107 | 65 | 30 | Inhibition of ligand binding, Serotonin 5-HT2A (percent inhibition of specific binding) ([1]; compound at 0.1 μM, 0.1 µM): 95%; Inhibition of ligand binding, Serotonin 5-HT2A (percent inhibition of specific binding) ([1]; compound at 1 μM, 1 µM): 101%; inhibition at 0.1 µM [1]: 87%
14 | COc1ccc(C(C)(O)Cn2c3c(c4cc(C)ccc42)CN(C)CC3)cc1F (stereo not shown) [Compound 173, 1-(2,8-dimethyl-3,4-dihydro-1H-pyrido[4,3-b]indol-5(2H)-yl)-2-(3-fluoro-4-methoxyphenyl)propan-2-ol] | – | 91 | 98 | 94 | 78 | –
